# Data published in US9802941B2, “Compounds and methods for inhibiting histone demethylases” (Gilead Sciences, Inc., priority 2014, dated 2017).
# Read-outs that look alike come from different tables or passages of the source.
# Key:
# Format in all cases: biochemical
# KDM4C (JMJD2C) = molecular target: T1, KDM4C (JMJD2C) (Homo sapiens, UniProt Q9H3R0); experiment: Histone lysine demethylase AlphaLISA assay, KDM4C
# T1 construct: KDM4C; BRIC, Denmark; 1-349; E. coli; host or cells: E. coli
# T1 sequence (Q9H3R0 1-349): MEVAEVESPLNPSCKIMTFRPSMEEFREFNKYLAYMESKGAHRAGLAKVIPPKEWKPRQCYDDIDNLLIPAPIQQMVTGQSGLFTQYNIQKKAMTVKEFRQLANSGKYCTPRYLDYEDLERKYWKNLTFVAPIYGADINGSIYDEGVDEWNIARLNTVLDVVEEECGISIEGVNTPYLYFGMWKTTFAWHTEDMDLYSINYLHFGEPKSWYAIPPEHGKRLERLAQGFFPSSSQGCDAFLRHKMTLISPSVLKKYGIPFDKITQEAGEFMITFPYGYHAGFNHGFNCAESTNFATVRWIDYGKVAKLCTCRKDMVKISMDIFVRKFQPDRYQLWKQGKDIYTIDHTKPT
# Experimental: (§1) The compounds of the application, or a pharmaceutically acceptable salt, or solvate, or prodrug thereof, are tested in an in vitro AlphaLISA assay. Enzymes are dissolved in enzyme buffer and incubated before they are added to DMSO solutions of compounds of the application, or a pharmaceutically acceptable salt, or solvate, or prodrug thereof, in enzyme buffer. The reaction mixture is then incubated for an additional period of time before substrate solution is added and then the resulting mixture again incubated. Acceptor beads and suspended Epigenetic Buffer from stock are added and the suspension is again incubated before a suspension of streptavidin donor beads in Epigenetic Buffer is added. After an additional period of incubation, the plates are read.
# (§2) The ability of compounds of the application to inhibit the histone lysine demethylase activity in vitro of different enzymes was determined.
# (§3) The reaction mixture was incubated for another 10 minutes before 5 μL of substrate solution was added and the resulting mixture was then incubated at room temperature. […] After incubation at room temperature in the dark, the plates were read.
# (§4) Enzyme Buffer: 50 mM Hepes (pH 7.4-8.0), 0.003-0.01% Tween-20, 0.1% BSA; 5 μM (NH4)2Fe(SO4)2.
# PHF8 (KDM7) = molecular target: T2, PHF8 (KDM7) (Homo sapiens, UniProt Q9UPP1); experiment: Histone lysine demethylase AlphaLISA assay, PHF8
# T2 construct: KDM7 (PHF8); BRIC; 1-1322; Bac
# Experimental: as §1, §2, §3, §4
# KDM5B (PLU-1) = molecular target: T3, KDM5B (PLU-1) (Homo sapiens, UniProt Q9UGL1); experiment: Histone lysine demethylase AlphaLISA assay, KDM5B
# T3 construct: BRIC; 1-809; E. coli; host or cells: E. coli
# T3 sequence (Q9UGL1 1-809): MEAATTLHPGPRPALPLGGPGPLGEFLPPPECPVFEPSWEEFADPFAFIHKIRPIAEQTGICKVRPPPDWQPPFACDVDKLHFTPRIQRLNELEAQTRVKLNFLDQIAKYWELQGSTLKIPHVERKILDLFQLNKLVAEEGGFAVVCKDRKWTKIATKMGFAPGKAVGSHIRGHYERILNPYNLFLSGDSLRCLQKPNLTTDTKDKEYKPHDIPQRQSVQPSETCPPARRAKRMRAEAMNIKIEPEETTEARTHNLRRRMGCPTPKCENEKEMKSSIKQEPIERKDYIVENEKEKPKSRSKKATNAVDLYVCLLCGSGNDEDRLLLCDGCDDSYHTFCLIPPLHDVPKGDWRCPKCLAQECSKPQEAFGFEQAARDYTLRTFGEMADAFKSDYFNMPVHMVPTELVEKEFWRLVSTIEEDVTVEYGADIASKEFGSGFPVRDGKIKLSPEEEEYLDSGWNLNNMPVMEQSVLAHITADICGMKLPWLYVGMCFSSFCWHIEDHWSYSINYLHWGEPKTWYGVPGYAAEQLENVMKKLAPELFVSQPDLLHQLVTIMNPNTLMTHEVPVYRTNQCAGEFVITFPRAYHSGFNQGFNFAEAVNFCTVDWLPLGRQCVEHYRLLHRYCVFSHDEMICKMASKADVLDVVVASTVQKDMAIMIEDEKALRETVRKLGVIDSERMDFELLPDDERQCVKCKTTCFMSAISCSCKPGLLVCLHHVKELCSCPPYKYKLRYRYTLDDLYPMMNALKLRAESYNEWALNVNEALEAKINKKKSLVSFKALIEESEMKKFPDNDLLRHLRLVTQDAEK
# Experimental: as §1, §2, §3, §4
# KDM2B (FBXL10) = molecular target: T4, KDM2B (FBXL10) (Homo sapiens, UniProt Q8NHM5); experiment: Histone lysine demethylase AlphaLISA assay, KDM2B
# T4 construct: KDM2B; BPS,; 1-650; Bac; purchased BPS Bioscience, US; host or cells: baculovirus system
# T4 sequence (Q8NHM5 1-650): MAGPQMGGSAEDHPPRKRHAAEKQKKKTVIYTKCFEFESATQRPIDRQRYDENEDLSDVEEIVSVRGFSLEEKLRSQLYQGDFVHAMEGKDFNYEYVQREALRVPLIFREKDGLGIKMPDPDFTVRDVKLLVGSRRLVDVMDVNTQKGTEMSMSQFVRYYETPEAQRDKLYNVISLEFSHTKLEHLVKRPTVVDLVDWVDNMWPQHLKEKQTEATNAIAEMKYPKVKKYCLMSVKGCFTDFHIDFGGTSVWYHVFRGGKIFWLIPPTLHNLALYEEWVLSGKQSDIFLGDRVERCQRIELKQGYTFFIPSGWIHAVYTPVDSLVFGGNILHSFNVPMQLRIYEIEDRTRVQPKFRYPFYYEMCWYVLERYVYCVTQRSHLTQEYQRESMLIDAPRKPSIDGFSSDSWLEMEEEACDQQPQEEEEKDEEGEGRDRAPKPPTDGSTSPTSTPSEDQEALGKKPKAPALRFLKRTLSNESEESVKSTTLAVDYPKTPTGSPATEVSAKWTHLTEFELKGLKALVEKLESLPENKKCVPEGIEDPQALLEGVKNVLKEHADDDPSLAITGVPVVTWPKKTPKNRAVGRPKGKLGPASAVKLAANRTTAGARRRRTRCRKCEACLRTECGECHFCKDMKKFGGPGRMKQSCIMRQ
# Experimental: as §1, §2, §3, §4
# [1] = AlphaLISA assay, read-out: HDME Inhibition KDM4C (IC50)
# [2] = AlphaLISA, in vitro, read-out: HDME Inhibition KDM4C
# [3] = AlphaLISA, in vitro, read-out: HDME Inhibition PHF8
# [4] = AlphaLISA assay, read-out: HDME Inhibition KDM5B (IC50)
# [5] = AlphaLISA, in vitro, read-out: HDME Inhibition KDM5B
# [6] = AlphaLISA, in vitro, read-out: HDME Inhibition KDM2B
# [7] = AlphaLISA assay, read-out: HDME Inhibition PHF8 (IC50)
# [8] = AlphaLISA assay, read-out: HDME Inhibition KDM2B (IC50)
# T2 sequence (Q9UPP1 37-440 limits assumed): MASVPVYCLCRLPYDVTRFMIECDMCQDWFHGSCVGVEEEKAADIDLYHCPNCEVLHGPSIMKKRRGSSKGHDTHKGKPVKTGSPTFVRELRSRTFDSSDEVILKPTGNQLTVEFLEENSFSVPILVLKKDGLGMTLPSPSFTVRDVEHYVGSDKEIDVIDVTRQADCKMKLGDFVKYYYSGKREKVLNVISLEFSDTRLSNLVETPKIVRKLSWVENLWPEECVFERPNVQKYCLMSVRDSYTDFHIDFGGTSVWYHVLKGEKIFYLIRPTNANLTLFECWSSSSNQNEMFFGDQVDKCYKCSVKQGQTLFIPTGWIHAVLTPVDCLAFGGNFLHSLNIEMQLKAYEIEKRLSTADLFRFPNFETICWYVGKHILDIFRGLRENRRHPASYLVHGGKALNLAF
SMILES,IC50 (KDM4C (JMJD2C); [1]),IC50 (KDM4C (JMJD2C); [2]),IC50 (PHF8 (KDM7); [3]),IC50 (KDM5B (PLU-1); [4]),IC50 (KDM5B (PLU-1); [5]),IC50 (KDM2B (FBXL10); [6]),IC50 (KDM5B (PLU-1)),IC50 (PHF8 (KDM7); [7]),IC50 (KDM2B (FBXL10); [8])
"CCc1cnc(CNCc2cc(C(=O)O)cc(C)n2)n1Cc1cccs1 [Compound 115, 2-[({[5-ethyl-1-(thiophen-2-ylmethyl)-1H-imidazol-2-yl]methyl}amino)methyl]-6-methylpyridine-4-carboxylic acid]",> 10 µM,> 10 µM,0.506 µM,> 10 µM,> 10 µM,0.053 µM,,,
"Cc1nnc(CNCc2cc(C(=O)O)cc(CO)n2)n1CCCc1ccccc1 [Compound 65, 2-(hydroxymethyl)-6-[({[5-methyl-4-(3-phenylpropyl)-4H-1,2,4-triazol-3-yl]methyl}amino)methyl]pyridine-4-carboxylic acid]",> 10 µM,> 10 µM,1.01 µM,,,0.034 µM,0.151 µM,,
"CCc1nnc(CNCc2cc(C(=O)O)cc(CO)n2)n1Cc1ccc(F)cc1 [Compound 64, 2-{[({5-ethyl-4-[(4-Fluorophenyl)methyl]-4H-1,2,4-triazol-3-yl}methyl)amino]methyl}-6-(hydroxymethyl)pyridine-4-carboxylic acid]",> 10 µM,> 10 µM,0.246 µM,> 10 µM,> 10 µM,0.104 µM,,,
"Cc1cc(OCc2ccccc2)c(CCNCc2cc(C(=O)O)cc(C)n2)nn1 [Compound 82, 2-[({2-[4-(benzyloxy)-6-methylpyridazin-3-yl]ethyl)amino)methyl]-6-methylpyridine-4-carboxylic acid]",> 10 µM,> 10 µM,3.32 µM,> 10 µM,> 10 µM,1.4 µM,,,
"Cc1cc(C(=O)O)cc(CNCc2nncn2C/C=C/c2ccccc2)n1 [Compound 67, 2-methyl-6-{[({4-[(2E)-3-phenylprop-2-en-1-yl]-4H-1,2,4-triazol-3-yl}methyl)amino]methyl}pyridine-4-carboxylic acid]",> 10 µM,> 10 µM,0.791 µM,> 10 µM,> 10 µM,0.715 µM,,,
"CC(O)c1nnc(CNCc2cc(C(=O)O)cc(CO)n2)n1Cc1ccc(F)cc1 (centres unmarked) [Compound 77, 2-{[({4-[(4-fluorophenyl)methyl]-5-(1-hydroxyethyl)-4H-1,2,4-triazol-3-yl}methyl)amino]methyl}-6-(hydroxymethyl)pyridine-4-carboxylic acid]",> 10 µM,> 10 µM,1.09 µM,> 10 µM,> 10 µM,0.379 µM,,,
"Cc1cc(C(=O)O)cc(CNCc2nccn2CC(C)C)n1 [Compound 80, 2-methyl-6-[({[1-(2-methylpropyl)-1H-imidazol-2-yl]methyl}amino)methyl]pyridine-4-carboxylic acid]",> 10 µM,> 10 µM,5.3 µM,,,0.683 µM,1.99 µM,,
"CCc1nnc(CNCc2cc(C(=O)O)cc(C)n2)n1Cc1cccc(C(C)O)c1 (centres unmarked) [Compound 86, 2-({[(5-ethyl-4-{[3-(1-hydroxyethyl)phenyl]methyl}-4H-1,2,4-triazol-3-yl)methyl]amino}methyl)-6-methylpyridine-4-carboxylic acid]",> 10 µM,> 10 µM,> 10 µM,> 10 µM,> 10 µM,> 10 µM,,> 10 µM,> 10 µM
"Cc1cc(C(=O)O)cc(CNCc2nocc2COc2ccc(F)cc2)n1 [Compound 76, 2-[({[4-(4-fluorophenoxymethyl)-1,2-oxazol-3-yl]methyl}amino)methyl]-6-methylpyridine-4-carboxylic acid]",,,> 10 µM,> 10 µM,> 10 µM,4.73 µM,,> 10 µM,
"Cc1cc(C(=O)O)cc(CNCCc2ncccc2C2=CCCC2)n1 [Compound 59, 2-[({2-[3-(cyclopent-1-en-1-yl)pyridin-2-yl]ethyl}amino)methyl]-6-methylpyridine-4-carboxylic acid]",,,> 10 µM,,,2.75 µM,,> 10 µM,
"COc1ccc(CC(C)C)c(CNCc2cc(C(=O)O)cc(C)n2)n1 [Compound 74, 2-[({[6-methoxy-3-(2-methylpropyl)pyridin-2-yl]methyl}amino)methyl]-6-methylpyridine-4-carboxylic acid]",,,3.81 µM,> 10 µM,> 10 µM,1.86 µM,,,
"Cc1cc(C(=O)O)cc(CNCc2nnc(C)n2-c2cccc(Cl)c2)n1 [Compound 58, 2-[({[4-(3-chlorophenyl)-5-methyl-4H-1,2,4-triazol-3-yl]methyl}amino)methyl]-6-methylpyridine-4-carboxylic acid]",,,> 10 µM,> 10 µM,> 10 µM,> 10 µM,,> 10 µM,> 10 µM
"COc1ccc(OCCc2ccccc2)c(CNCc2cc(C(=O)O)cc(C)n2)n1 [Compound 104, 2-[({[6-methoxy-3-(2-phenylethoxy)pyridin-2-yl]methyl}amino)methyl]-6-methylpyridine-4-carboxylic acid]",,,0.4 µM,> 10 µM,> 10 µM,0.145 µM,,,
"COC(=O)c1cn(Cc2ccc(F)cc2)c(CNCc2cc(C(=O)O)cc(CO)n2)n1 [Compound 106, 2-{[({1-[(4-fluorophenyl)methyl]-4-(methoxycarbonyl)-1H-imidazol-2-yl}methyl)amino]methyl}-6-(hydroxymethyl)pyridine-4-carboxylic acid]",,,2.77 µM,> 10 µM,> 10 µM,3.1 µM,,,
